{"source": "paper PMC5218480", "about": "(PLoS ONE, 2017)", "test_system": "MV-4-11 cells", "test": "Gene expression microarray analysis (Affymetrix PrimeView) and GSEA", "assay_type": "cell-based, human", "set-up": "RFU PODN (11730768_x_at) / Fold change /veh PODN (11730768_x_at) / RFU LINC00158 (11744669_a_at) / Fold change /veh LINC00158 (11744669_a_at) / RFU DUSP10 (11751237_a_at) / Fold change /veh DUSP10 (11751237_a_at) / RFU ID3 (11757404_x_at) / Fold change /veh ID3 (11757404_x_at) / RFU PLEKHG5 (11737974_s_at) / Fold change /veh PLEKHG5 (11737974_s_at) / RFU LRRC4B (11730491_at) / Fold change /veh LRRC4B (11730491_at) / RFU GIMAP4 (11747438_a_at) / Fold change /veh GIMAP4 (11747438_a_at) / RFU KRT8 (11758183_x_at) / Fold change /veh KRT8 (11758183_x_at) / RFU CNN1 (11734310_a_at) / Fold change /veh CNN1 (11734310_a_at) / RFU VPS37D (11726825_at) / Fold change /veh VPS37D (11726825_at) / RFU C10orf10 (11716522_x_at) / Fold change /veh C10orf10 (11716522_x_at) / RFU KIR2DL2 /// KIR2DL4 /// KIR2DL5A /// KIR2DL5B /// KIR2DS1 /// KIR2DS2 /// KIR2DS3 /// KIR2DS4 /// KIR3DL3 /// KIR3DL3 /// KIR3DS1 (11738374_at) / Fold change /veh KIR2DL2 /// KIR2DL4 /// KIR2DL5A /// KIR2DL5B /// KIR2DS1 /// KIR2DS2 /// KIR2DS3 /// KIR2DS4 /// KIR3DL3 /// KIR3DL3 /// KIR3DS1 (11738374_at) / RFU C1QL1 (11718748_at) / Fold change /veh C1QL1 (11718748_at) / RFU TMPRSS4 (11747572_a_at) / Fold change /veh TMPRSS4 (11747572_a_at) / RFU HAMP (11756126_x_at) / Fold change /veh HAMP (11756126_x_at) / RFU RNFT2 (11725882_a_at) / Fold change /veh RNFT2 (11725882_a_at) / RFU NR4A2 (11747474_a_at) / Fold change /veh NR4A2 (11747474_a_at) / RFU ABCC12 (11746883_a_at) / Fold change /veh ABCC12 (11746883_a_at) / RFU TMEM136 (11760407_x_at) / Fold change /veh TMEM136 (11760407_x_at) / RFU CLDN22 /// WWC2 (11732394_at) / Fold change /veh CLDN22 /// WWC2 (11732394_at) / RFU HLA-DPB1 (11760878_x_at) / Fold change /veh HLA-DPB1 (11760878_x_at) / RFU SPINT1 (11716480_a_at) / Fold change /veh SPINT1 (11716480_a_at) / RFU GAP43 (11754022_s_at) / Fold change /veh GAP43 (11754022_s_at) / RFU A4GNT (11735810_at) / Fold change /veh A4GNT (11735810_at) / RFU PRB3 (11715151_x_at) / Fold change /veh PRB3 (11715151_x_at) / RFU TUBB4B (11761932_at) / Fold change /veh TUBB4B (11761932_at) / RFU CAPN14 (11732068_a_at) / Fold change /veh CAPN14 (11732068_a_at) / RFU TMCC2 (11721928_a_at) / Fold change /veh TMCC2 (11721928_a_at) / RFU IRGQ (11745062_a_at) / Fold change /veh IRGQ (11745062_a_at) / RFU FAM174B (11720279_a_at) / Fold change /veh FAM174B (11720279_a_at) / RFU TMPRSS4 (11748680_a_at) / Fold change /veh TMPRSS4 (11748680_a_at) / RFU FAM212B (11763350_a_at) / Fold change /veh FAM212B (11763350_a_at) / RFU PLEKHG5 (11743358_a_at) / Fold change /veh PLEKHG5 (11743358_a_at) / RFU ZSCAN30 (11745921_a_at) / Fold change /veh ZSCAN30 (11745921_a_at) / RFU CMKLR1 (11741424_a_at) / Fold change /veh CMKLR1 (11741424_a_at) / RFU LOC101060620 /// MAPK8IP1 (11723275_at) / Fold change /veh LOC101060620 /// MAPK8IP1 (11723275_at) / RFU SPTSSB (11747773_x_at) / Fold change /veh SPTSSB (11747773_x_at) / RFU PRSS12 (11739890_at) / Fold change /veh PRSS12 (11739890_at) / RFU BIN1 (11741810_x_at) / Fold change /veh BIN1 (11741810_x_at) / RFU WNT11 (11732464_a_at) / Fold change /veh WNT11 (11732464_a_at) / RFU C10orf10 (11716521_a_at) / Fold change /veh C10orf10 (11716521_a_at) / RFU C5orf56 (11738089_at) / Fold change /veh C5orf56 (11738089_at) / RFU CYB561 (11721691_x_at) / Fold change /veh CYB561 (11721691_x_at) / RFU ANKRD19P (11752326_a_at) / Fold change /veh ANKRD19P (11752326_a_at) / RFU OR2T12 /// OR2T33 /// OR2T8 (11738714_s_at) / Fold change /veh OR2T12 /// OR2T33 /// OR2T8 (11738714_s_at) / RFU VCAN (11748164_a_at) / Fold change /veh VCAN (11748164_a_at) / RFU JSRP1 (11732532_at) / Fold change /veh JSRP1 (11732532_at) / RFU KRTAP10-11 (11738290_x_at) / Fold change /veh KRTAP10-11 (11738290_x_at) / RFU MYO3A (11730013_a_at) / Fold change /veh MYO3A (11730013_a_at) / RFU EBF3 (11725865_a_at) / Fold change /veh EBF3 (11725865_a_at) / RFU CAMK2N1 (11719241_x_at) / Fold change /veh CAMK2N1 (11719241_x_at) / RFU C5orf56 (11738088_a_at) / Fold change /veh C5orf56 (11738088_a_at) / RFU OLFML3 (11715873_a_at) / Fold change /veh OLFML3 (11715873_a_at) / RFU LOC100653217 /// NTM (11731650_a_at) / Fold change /veh LOC100653217 /// NTM (11731650_a_at) / RFU MAPK11 (11762145_a_at) / Fold change /veh MAPK11 (11762145_a_at) / RFU FIZ1 (11724087_x_at) / Fold change /veh FIZ1 (11724087_x_at) / RFU OASL (11726364_x_at) / Fold change /veh OASL (11726364_x_at) / RFU SOX15 (11748057_x_at) / Fold change /veh SOX15 (11748057_x_at) / RFU CD79A (11719716_a_at) / Fold change /veh CD79A (11719716_a_at) / RFU HIST1H1D (11736915_at) / Fold change /veh HIST1H1D (11736915_at) / RFU CASKIN2 (11723855_a_at) / Fold change /veh CASKIN2 (11723855_a_at) / RFU LOC730098 (11760151_x_at) / Fold change /veh LOC730098 (11760151_x_at) / RFU OR4N2 (11742367_at) / Fold change /veh OR4N2 (11742367_at) / RFU PRRT2 (11749266_a_at) / Fold change /veh PRRT2 (11749266_a_at) / RFU SNX32 (11753110_a_at) / Fold change /veh SNX32 (11753110_a_at) / RFU CDHR5 (11726645_a_at) / Fold change /veh CDHR5 (11726645_a_at) / RFU RCAN1 (11760418_a_at) / Fold change /veh RCAN1 (11760418_a_at) / RFU FAM167A (11723789_a_at) / Fold change /veh FAM167A (11723789_a_at) / RFU FAM26E (11764081_at) / Fold change /veh FAM26E (11764081_at) / RFU ISYNA1 (11749810_s_at) / Fold change /veh ISYNA1 (11749810_s_at) / RFU ACY1 (11761880_at) / Fold change /veh ACY1 (11761880_at) / RFU 11764098_at / Fold change /veh 11764098_at / RFU SAMD14 (11745864_x_at) / Fold change /veh SAMD14 (11745864_x_at) / RFU NPB (11741838_a_at) / Fold change /veh NPB (11741838_a_at) / RFU TMPRSS6 (11731388_a_at) / Fold change /veh TMPRSS6 (11731388_a_at) / RFU KRTAP10-2 (11738614_at) / Fold change /veh KRTAP10-2 (11738614_at) / RFU ARHGAP8 /// PRR5-ARHGAP8 (11727945_x_at) / Fold change /veh ARHGAP8 /// PRR5-ARHGAP8 (11727945_x_at) / RFU KRTAP5-7 /// NADSYN1 (11734609_at) / Fold change /veh KRTAP5-7 /// NADSYN1 (11734609_at) / RFU RASL12 (11751679_a_at) / Fold change /veh RASL12 (11751679_a_at) / RFU CDKN2B (11736163_a_at) / Fold change /veh CDKN2B (11736163_a_at) / RFU PRF1 (11729649_at) / Fold change /veh PRF1 (11729649_at) / RFU, ZNF638 /// ZNF638-IT1 / Fold change vs veh, ZNF638 /// ZNF638-IT1 / RFU, PANK3 / Fold change vs veh, PANK3 / RFU, SH3YL1 / Fold change vs veh, SH3YL1 / RFU, ZEB2 / Fold change vs veh, ZEB2 / RFU, NRIP1 / Fold change vs veh, NRIP1 / RFU, PTTG1IP / Fold change vs veh, PTTG1IP / RFU, CAPN2 / Fold change vs veh, CAPN2 / RFU, MED14 / Fold change vs veh, MED14 / RFU, SNORA58 / Fold change vs veh, SNORA58 / RFU, C1orf63 / Fold change vs veh, C1orf63 / RFU, LRRFIP1 / Fold change vs veh, LRRFIP1 / RFU, NDUFAF7 / Fold change vs veh, NDUFAF7 / RFU, SLC12A2 / Fold change vs veh, SLC12A2 / RFU, IBTK / Fold change vs veh, IBTK / RFU, ESF1 / Fold change vs veh, ESF1 / Fold change vs veh, TMEM50B / RFU, TAOK1 / Fold change vs veh, TAOK1 / RFU, ACBD3 / Fold change vs veh, ACBD3 / RFU, TMA16 / Fold change vs veh, TMA16 / RFU, RWDD3 / Fold change vs veh, RWDD3 / RFU, BCAT1 / Fold change vs veh, BCAT1 / RFU, EDEM3 / Fold change vs veh, EDEM3 / RFU, TMEM33 / Fold change vs veh, TMEM33 / RFU, WDR75 / Fold change vs veh, WDR75 / RFU, AHCTF1 / Fold change vs veh, AHCTF1 / RFU, TFRC / Fold change vs veh, TFRC / RFU, ZDHHC17 / Fold change vs veh, ZDHHC17 / RFU, NOM1 / Fold change vs veh, NOM1 / RFU, ARL8B / Fold change vs veh, ARL8B / RFU, ZBTB11 / Fold change vs veh, ZBTB11 / RFU, TAMM41 / Fold change vs veh, TAMM41 / RFU, KIAA1704 /// LOC100996395 / Fold change vs veh, KIAA1704 /// LOC100996395 / RFU, ING1 / Fold change vs veh, ING1 / RFU, TRMT61B / Fold change vs veh, TRMT61B / RFU, FUBP3 / Fold change vs veh, FUBP3 / RFU, TP53 / Fold change vs veh, TP53 / RFU, TNKS2 / Fold change vs veh, TNKS2 / RFU, ZFP14 / Fold change vs veh, ZFP14 / RFU, ACTR2 / Fold change vs veh, ACTR2 / RFU, PPP3R1 / Fold change vs veh, PPP3R1 / RFU, PIK3R1 / Fold change vs veh, PIK3R1 / RFU, HNRNPA1 / Fold change vs veh, HNRNPA1 / RFU, RNF170 / Fold change vs veh, RNF170 / RFU, ZNF28 / Fold change vs veh, ZNF28 / RFU, RNGTT / Fold change vs veh, RNGTT / RFU, OGT / Fold change vs veh, OGT / RFU, BRD1 / Fold change vs veh, BRD1 / RFU, MARS / Fold change vs veh, MARS / RFU, ZNF655 / Fold change vs veh, ZNF655 / RFU, FAHD1 / Fold change vs veh, FAHD1 / RFU, BDP1 / Fold change vs veh, BDP1 / RFU, LRRCC1 / Fold change vs veh, LRRCC1 / RFU, ARID1A / Fold change vs veh, ARID1A / RFU, ZNF146 / Fold change vs veh, ZNF146 / RFU, ZNF330 / Fold change vs veh, ZNF330 / RFU, GPN3 / Fold change vs veh, GPN3 / RFU, C9orf123 / Fold change vs veh, C9orf123 / RFU, N4BP2L2 / Fold change vs veh, N4BP2L2 / RFU, ARFIP1 / Fold change vs veh, ARFIP1 / RFU, FAM179B / Fold change vs veh, FAM179B / RFU, BCL10 / Fold change vs veh, BCL10 / RFU, UHRF1BP1L / Fold change vs veh, UHRF1BP1L / RFU, BET1 / Fold change vs veh, BET1 / RFU, CNOT2 / Fold change vs veh, CNOT2 / RFU, ZNF268 / Fold change vs veh, ZNF268 / Fold change vs veh, ZNF507 / RFU, DGCR2 / Fold change vs veh, DGCR2 / RFU, WDSUB1 / Fold change vs veh, WDSUB1 / Fold change vs veh, HSP90B1 /// MIR3652 / RFU, ADSS / Fold change vs veh, ADSS / RFU, GK / Fold change vs veh, GK / RFU, ZNF148 / Fold change vs veh, ZNF148 / RFU, TAF9 / Fold change vs veh, TAF9 / RFU, SLC1A5 / Fold change vs veh, SLC1A5 / RFU, SLMO2 / Fold change vs veh, SLMO2 / RFU, ABCC4 / Fold change vs veh, ABCC4 / RFU, LOC101060439 /// RAP1B / Fold change vs veh, LOC101060439 /// RAP1B / RFU, RFX7 / Fold change vs veh, RFX7 / RFU, GTPBP10 / Fold change vs veh, GTPBP10 / RFU, CNEP1R1 / Fold change vs veh, CNEP1R1 / RFU, BIVM-ERCC5 /// ERCC5 / Fold change vs veh, BIVM-ERCC5 /// ERCC5 / RFU, ILF3 / Fold change vs veh, ILF3 / RFU 11762660_at / Fold change /veh 11762660_at / RFU VCAN (11757783_s_at) / Fold change /veh VCAN (11757783_s_at) / RFU DDX43 (11728927_at) / Fold change /veh DDX43 (11728927_at) / RFU KRT8 (11758188_x_at) / Fold change /veh KRT8 (11758188_x_at) / RFU NKD1 (11759106_at) / Fold change /veh NKD1 (11759106_at) / RFU SRD5A1 (11742802_a_at) / Fold change /veh SRD5A1 (11742802_a_at) / RFU TPSAB1 /// TPSB2 (11721975_s_at) / Fold change /veh TPSAB1 /// TPSB2 (11721975_s_at) / RFU GSTM3 (11746129_a_at) / Fold change /veh GSTM3 (11746129_a_at) / RFU IL23R (11737362_x_at) / Fold change /veh IL23R (11737362_x_at) / RFU TMEM51 (11727254_a_at) / Fold change /veh TMEM51 (11727254_a_at) / RFU PIWIL2 (11732686_x_at) / Fold change /veh PIWIL2 (11732686_x_at) / RFU ORM1 (11744905_x_at) / Fold change /veh ORM1 (11744905_x_at) / RFU CCDC152 (11743942_at) / Fold change /veh CCDC152 (11743942_at) / RFU ECM1 (11717891_a_at) / Fold change /veh ECM1 (11717891_a_at) / RFU IL23R (11748794_a_at) / Fold change /veh IL23R (11748794_a_at) / RFU TNFAIP8L3 (11732012_x_at) / Fold change /veh TNFAIP8L3 (11732012_x_at) / RFU MBOAT4 (11741988_at) / Fold change /veh MBOAT4 (11741988_at) / RFU 11764193_at / Fold change /veh 11764193_at / RFU TMEM53 (11763286_at) / Fold change /veh TMEM53 (11763286_at) / RFU MAGEB2 (11727129_at) / Fold change /veh MAGEB2 (11727129_at) / RFU TMEM200A (11744735_a_at) / Fold change /veh TMEM200A (11744735_a_at) / RFU CCDC152 (11751479_a_at) / Fold change /veh CCDC152 (11751479_a_at) / RFU FAM211A (11726209_a_at) / Fold change /veh FAM211A (11726209_a_at) / RFU RGS16 (11746705_a_at) / Fold change /veh RGS16 (11746705_a_at) / RFU VCAN (11755009_s_at) / Fold change /veh VCAN (11755009_s_at) / RFU RHOB (11743442_s_at) / Fold change /veh RHOB (11743442_s_at) / RFU RGS16 (11720943_a_at) / Fold change /veh RGS16 (11720943_a_at) / RFU RGS16 (11720944_at) / Fold change /veh RGS16 (11720944_at) / RFU, VPS4B / Fold change vs veh, VPS4B / RFU, CREB1 / Fold change vs veh, CREB1 / RFU, DNAJC13 / Fold change vs veh, DNAJC13 / RFU, GNAQ / Fold change vs veh, GNAQ / RFU, CDK5R1 / Fold change vs veh, CDK5R1 / RFU, ZRANB3 / Fold change vs veh, ZRANB3 / RFU, CUL4A / Fold change vs veh, CUL4A / RFU, CCNY / Fold change vs veh, CCNY / RFU, UFL1 / Fold change vs veh, UFL1 / RFU, COG3 / Fold change vs veh, COG3 / RFU, DIAPH2 / Fold change vs veh, DIAPH2 / RFU, SKA2 / Fold change vs veh, SKA2 / RFU, AFF3 / Fold change vs veh, AFF3 / RFU, LMF1 / Fold change vs veh, LMF1 / RFU, IPO11 / Fold change vs veh, IPO11 / RFU, DFFB / Fold change vs veh, DFFB / RFU, FOXP1 / Fold change vs veh, FOXP1 / RFU, CARD8 / Fold change vs veh, CARD8 / RFU, STRN3 / Fold change vs veh, STRN3 / RFU, ADK / Fold change vs veh, ADK / RFU, RASSF2 / Fold change vs veh, RASSF2 / RFU, WIPF1 / Fold change vs veh, WIPF1 / RFU, LARP1B / Fold change vs veh, LARP1B / RFU, RASA1 / Fold change vs veh, RASA1 / RFU, RB1 / Fold change vs veh, RB1 / RFU, PPFIA1 / Fold change vs veh, PPFIA1 / RFU, MAT2A / Fold change vs veh, MAT2A / RFU, CCT5 / Fold change vs veh, CCT5 / RFU, WDR92 / Fold change vs veh, WDR92 / RFU, CUX1 / Fold change vs veh, CUX1 / RFU, TTC7A / Fold change vs veh, TTC7A / RFU, TMEM135 / Fold change vs veh, TMEM135 / RFU, DEPTOR / Fold change vs veh, DEPTOR / RFU, CPM / Fold change vs veh, CPM / RFU, DNAJB6 / Fold change vs veh, DNAJB6 / RFU, CACNA2D3 / Fold change vs veh, CACNA2D3 / RFU, DTX4 / Fold change vs veh, DTX4 / RFU, TFCP2 / Fold change vs veh, TFCP2 / RFU, GMCL1 /// GMCL1P1 / Fold change vs veh, GMCL1 /// GMCL1P1 / RFU, AEBP2 / Fold change vs veh, AEBP2 / RFU, SNHG1 /// SNORD22 /// SNORD25 /// SNORD26 /// SNORD27 /// SNORD28 /// SNORD29 /// SNORD31 / Fold change vs veh, SNHG1 /// SNORD22 /// SNORD25 /// SNORD26 /// SNORD27 /// SNORD28 /// SNORD29 /// SNORD31 / Fold change (Aza/veh), C12orf56 (ProbeSet 11735607_a_at) / Fold change (ACY-1035/veh), C12orf56 (ProbeSet 11735607_a_at) / Fold change (Aza/veh), FGFR1OP (ProbeSet 11751329_s_at) / Fold change (ACY-1035/veh), FGFR1OP (ProbeSet 11751329_s_at) / Fold change (Aza/veh), VPS36 (ProbeSet 11739960_a_at) / Fold change (ACY-1035/veh), VPS36 (ProbeSet 11739960_a_at) / RFU SYPL1 (11715823_x_at) / Fold change /veh SYPL1 (11715823_x_at) / RFU IGFBP7 (11715501_s_at) / Fold change /veh IGFBP7 (11715501_s_at) / RFU REEP3 (11722064_at) / Fold change /veh REEP3 (11722064_at) / RFU IGLL1 (11728026_x_at) / Fold change /veh IGLL1 (11728026_x_at): dose or concentration left out as unconfirmed", "details": "ProbeSet 11716844_s_at; LIST D", "data": [{"smiles": "Nc1ncn([C@@H]2O[C@H](CO)[C@@H](O)[C@H]2O)c(=O)n1", "note": "[azacitidine]", "values": [{"measurement": "RFU, DNAJC13", "result": 111.36, "unit": "RFU"}]}]}
